Values of other authors as cited in patent publication US20030031676A1, “Conjugate compounds for treating atheroma and other diseases” (Pharmacyclics, Inc., priority 1999, published 2003).

Details: animal models

## lutetium (III) texaphyrin
  radiation sensitization activity: lack of radiation sensitization activity
